Legend:
LP-1 cells [1] = test: Electron microscopy for MLBs, AVs and UVs; type: cell-based, human; settings: 48 h, 10 μM drug (PBPE 40 μM)
RPMI 8226 and LP-1 cells [2] = test: Degradation of long-lived proteins; type: cell-based, human; settings: both cell lines, 10 μM OHT, 40 μM PBPE
Experimental: The degradation of long-lived proteins was measured as described previously. Briefly, HMCLs were incubated for 24 h at 37°C with 0.2 μCi/ml of L-[[14]C]valine in complete medium. Cells were then washed resuspended in medium with no nutrients but supplemented with 10 mM valine. After the first h of incubation, the chase medium was replaced by complete medium and the incubation continued for 5 h. […] Radiolabeled proteins present in the chase medium as well as in cells were precipitated with 10% trichloroacetic acid (v/v) at 4°C. Radioactivity was measured by scintillation counting. The rate of protein degradation was calculated from the ratio of radioactivity in the medium to that of precipitated cell fraction.

ChEH [3] = biological target: T1, ChEH (Homo sapiens, UniProt Q15125+Q9UBM7); test: ChEH activity measured on intact cells; type: cell-based; parameters: endogenous in cells; host or cells: RPMI 8226 human multiple myeloma cell lines
From the text: (§1) Cells were then pelleted and extracted with chloroform/methanol (2/1). The organic layer was reduced to dryness under a flux of argon and the residue was resuspended in EtOH. Samples were applied to thin layer chromatography (TLC) plates and developed using ethyl acetate as previously described. The radioactive metabolites were visualized by autoradiography using Kodak Biomax MS films.

AEBS [4] = biological target: T2, AEBS (Homo sapiens, UniProt Q15125+Q9UBM7); test: Binding to the AEBS in HMCLs; parameters: endogenous in cells; host or cells: RPMI 8226 and LP-1 human multiple myeloma cell lines
AEBS [5] = biological target: T2, AEBS; test: Binding to the AEBS in LP1; parameters: endogenous in cells; host or cells: LP-1 human multiple myeloma cell lines
HMCLs = test: Free sterol accumulation in HMCLs; type: cell-based, human
Experimental: (§2) The organic layer was reduced to dryness under a flux of argon and the residue was resuspended in ethanol. Sterols were analyzed by liquid chromatography and gas-liquid chromatography as described before. Neutral lipids and sphingomyelin analyses were done according to previously published procedures.

LP-1 cells [6] = test: Presence of 5,6-EC in cells by GC/MS; type: cell-based, human; settings: 48 h, 10 μM drug (PBPE 40 μM)
Experimental: as §2

RPMI 8226 cells [7] = test: Presence of 5,6-EC in cells by GC/MS; type: cell-based, human; settings: 48 h, 10 μM drug (PBPE 40 μM)
Experimental: as §2

RPMI 8226 cells [8] = test: Electron microscopy for MLBs, AVs and UVs; type: cell-based, human; settings: 48 h, 10 μM drug (PBPE 40 μM)
ChEH [9] = biological target: T1, ChEH; test: ChEH activity measured on intact cells; type: cell-based; parameters: endogenous in cells; host or cells: LP-1 human multiple myeloma cell lines
From the text: as §1

RPMI 8226 and LP-1 cells [10] = test: Cell viability, MTT assay; type: cell-based, human; settings: 1 μM LY 294002, 10 nM everolimus, 10 μM RU 39411, 40 μM PBPE
Experimental: RPMI 8226 were obtained from R Bataille (CLCC, Nantes, France) and LP-1 cells from D Bouscary (Institut Cochin, Paris, France). At their arrival, the identity of cells was checked by karyotyping and surface markers expression; cells were then amplified and frozen. HMCLs were maintained in RPMI 1640 medium (Lonza, Basel, Switzerland) supplemented with 2 mM L-glutamine (Lonza) and 10% FCS (fetal calf serum) (PAA Laboratories, Velizy-Villacoublay, France). In experiments with AEs, cells were cultured in phenol red-free medium plus FCS. AEs were dissolved in ethanol (EtOH) to obtain 10 mM stock solution and then diluted into medium immediately before use. For controls, vehicle was added at the same final concentration. Cell viability was determined using CellTiter 96® AQueous One Solution (MTT [([3]-([4],[5])-dimethylthiazol-[2]-yl)-[2],[5]-diphenyltetrazolium bromide] assay, Promega, Charbonnières, France) according to the supplier's instructions.

RPMI 8226 and LP-1 cells [11] = test: Intracellular free sterol, TG and SM contents; type: cell-based, human; settings: 5 µM OHT, 20 µM PBPE or 5 µM RU 58668 for three days
Experimental: as §2

AEBS [12] = biological target: T2, AEBS; test: Binding to the AEBS in RPMI 8226
LP-1 cells [13] = test: Sterols accumulated in cells, HPLC and GC/MS; type: cell-based, human; settings: LP1, 48 h incubation
Experimental: as §2

RPMI 8226 cells [14] = test: Sterols accumulated in cells, HPLC and GC/MS; type: cell-based, human; settings: RPMI 8226, 48 h incubation
Experimental: as §2

ChEH [15] = biological target: T1, ChEH; test: ChEH activity in HMCLs (TLC); type: cell-based; parameters: endogenous in cells; host or cells: RPMI 8226 and LP-1 human multiple myeloma cell lines; settings: for ChEH activity, conversion of 5,6-EC into CT by TLC: OHT, Tam, RU 58668 10 μM, PBPE 40 μM
From the text: as §1

RPMI 8226 = test system: RPMI 8226; parameters: method as in earlier work; settings: cited from earlier work
Karpas 620 = test system: Karpas 620; parameters: method as in earlier work; settings: cited from earlier work
NCI-H929 = test system: NCI-H929; parameters: method as in earlier work; settings: cited from earlier work
LP-1 = test system: LP-1; parameters: method as in earlier work; settings: cited from earlier work
MM tumors = test system: MM tumors; parameters: method as in PMID 20033476, PMID 16753295; settings: xenografted mice bearing MM tumors; cited from earlier work
U266 = test system: U266; parameters: method as in earlier work; settings: cited from earlier work
OPM-2 = test system: OPM-2; parameters: method as in earlier work; settings: cited from earlier work
[16] = RPMI 8226, presence of 500 μM Vit E

T2 sequence (Q15125 whole entry): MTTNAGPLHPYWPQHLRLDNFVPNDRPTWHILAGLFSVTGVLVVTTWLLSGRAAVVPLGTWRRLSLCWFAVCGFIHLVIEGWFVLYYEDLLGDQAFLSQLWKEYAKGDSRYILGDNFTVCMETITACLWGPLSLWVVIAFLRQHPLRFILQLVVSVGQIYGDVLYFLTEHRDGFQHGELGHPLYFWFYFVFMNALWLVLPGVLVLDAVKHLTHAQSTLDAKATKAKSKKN
T2 sequence (Q9UBM7 whole entry): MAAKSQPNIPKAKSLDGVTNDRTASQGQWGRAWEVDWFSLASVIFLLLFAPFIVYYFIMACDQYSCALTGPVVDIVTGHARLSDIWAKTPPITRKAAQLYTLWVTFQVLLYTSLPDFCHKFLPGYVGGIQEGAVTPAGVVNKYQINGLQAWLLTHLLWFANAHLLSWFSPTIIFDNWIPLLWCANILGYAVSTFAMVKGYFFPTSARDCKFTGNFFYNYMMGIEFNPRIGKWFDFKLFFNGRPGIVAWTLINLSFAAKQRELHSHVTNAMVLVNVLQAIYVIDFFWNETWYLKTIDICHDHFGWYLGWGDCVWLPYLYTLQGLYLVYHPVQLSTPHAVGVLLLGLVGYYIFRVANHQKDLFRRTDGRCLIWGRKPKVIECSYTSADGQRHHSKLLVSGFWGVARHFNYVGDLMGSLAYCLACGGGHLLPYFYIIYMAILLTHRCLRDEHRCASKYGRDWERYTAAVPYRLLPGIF
T1 sequence (Q15125 whole entry): as the sequence (Q15125 whole entry) above
T1 sequence (Q9UBM7 whole entry): as the sequence (Q9UBM7 whole entry) above

| SMILES | AV (LP-1 cells [1]; LP-1, absence of Vit E) | MLB (LP-1 cells [1]; LP-1, absence of Vit E) | UV (LP-1 cells [1]; LP-1, absence of Vit E) | AV (LP-1 cells [1]; LP-1, presence of 500 μM Vit E) | MLB (LP-1 cells [1]; LP-1, presence of 500 μM Vit E) | UV (LP-1 cells [1]; LP-1, presence of 500 μM Vit E) | affinity for the AEBS (AEBS [4]) | Ki (AEBS [5]) [nM] | free sterol accumulated (HMCLs) | AV (RPMI 8226 cells [8]; RPMI 8226, absence of Vit E) | MLB (RPMI 8226 cells [8]; RPMI 8226, absence of Vit E) | UV (RPMI 8226 cells [8]; RPMI 8226, absence of Vit E) | AV (RPMI 8226 cells [8]; [16]) | MLB (RPMI 8226 cells [8]; [16]) | UV (RPMI 8226 cells [8]; [16]) | Ki (AEBS [12]) [nM] | ChEH activity, conversion of 5,6-EC into CT by TLC (ChEH [15]) | also measured |
| --- | --- | --- | --- | --- | --- | --- | --- | --- | --- | --- | --- | --- | --- | --- | --- | --- | --- | --- |
| Cl.c1ccc(Cc2ccc(OCCN3CCCC3)cc2)cc1 [PBPE, 1-(2-(4-benzylphenoxy)-ethyl)-pyrrolidin-HCl] | + + (The sign + means that 80 % cells were positive and contained at least 5 vesicles) | + + (The sign + means that 80 % cells were positive and contained at least 5 vesicles) | + (The sign + means that 80 % cells were positive and contained at least 5 vesicles) | + + (The sign + means that 80 % cells were positive and contained at least 5 vesicles) | + + (The sign + means that 80 % cells were positive and contained at least 5 vesicles) | − (otherwise they were considered as negative (-)) | high affinity | 3.2 ± 2.2 | accumulation zymostenol | + + (The sign + means that 80 % cells were positive and contained at least 5 vesicles) | + + (The sign + means that 80 % cells were positive and contained at least 5 vesicles) | + (The sign + means that 80 % cells were positive and contained at least 5 vesicles) | + + (The sign + means that 80 % cells were positive and contained at least 5 vesicles) | + + (The sign + means that 80 % cells were positive and contained at least 5 vesicles) | − (otherwise they were considered as negative (-)) | 4.2 ± 1.8 | ChEH activity was inhibited | rate of long-lived protein degradation (RPMI 8226 and LP-1 cells [2]): stimulated; IC50 (ChEH [3]): 927 ± 24 nM; 5,6-EC (LP-1 cells [6]; LP-1, absence of Vit E): +; 5,6-EC (LP-1 cells [6]; LP-1, presence of 500 μM Vit E): −; 5,6-EC (RPMI 8226 cells [7]; RPMI 8226, absence of Vit E): +; 5,6-EC (RPMI 8226 cells [7]; [16]): −; IC50 (ChEH [9]): 884 ± 32 nM; cell death (viable cells, MTT assay) (RPMI 8226 and LP-1 cells [10]): cell death that was strictly caspase-independent; intracellular free sterol, triacylglycerol (TG) and sphingomyelin (SM) contents (RPMI 8226 and LP-1 cells [11]): increases; Desmosterol (LP-1 cells [13]): 1.2 percent by the weight of total sterol; Zymostenol (LP-1 cells [13]): 31.1 percent by the weight of total sterol; Desmosterol (RPMI 8226 cells [14]): 1.4 percent by the weight of total sterol; Zymostenol (RPMI 8226 cells [14]): 28.7 percent by the weight of total sterol |
| C[C@]12C[C@H](c3ccc(OCCCCCS(=O)(=O)CCCC(F)(F)C(F)(F)F)cc3)[C@@H]3c4ccc(O)cc4CC[C@H]3[C@@H]1CC[C@@H]2O [RU 58668, 17β-11-[4-[5-[([4],[4],[5],[5],[5]-pentafluoropentyl)-sulfonyl]-pentyloxy]-phenyl]estra-1,3,5(10)-triene,3,17-diol] | + + (The sign + means that 80 % cells were positive and contained at least 5 vesicles) | − − (otherwise they were considered as negative (-)) | − − (otherwise they were considered as negative (-)) | + + (The sign + means that 80 % cells were positive and contained at least 5 vesicles) | − − (otherwise they were considered as negative (-)) | − − (otherwise they were considered as negative (-)) | no measurable affinity | > 10000 | did not induce free sterol accumulation | + + (The sign + means that 80 % cells were positive and contained at least 5 vesicles) | − − (otherwise they were considered as negative (-)) | − − (otherwise they were considered as negative (-)) | + + (The sign + means that 80 % cells were positive and contained at least 5 vesicles) | − − (otherwise they were considered as negative (-)) | − − (otherwise they were considered as negative (-)) | > 10000 | CT accumulated | SERM and SERDs effects on MM cell lines (RPMI 8226): Apoptosis; SERM and SERDs effects on MM cell lines (Karpas 620): No response; IC50 (ChEH [3]; RPMI 8226 intact cells, [14C]-5,6-EC 0.6 μM, drugs 1 nM to 10 μM over 24 h, read-out: ChEH IC50): > 10000 nM; SERM and SERDs effects on MM cell lines (NCI-H929): Apoptosis; SERM and SERDs effects on MM cell lines (LP-1): G1-arrest; tumor growth (MM tumors): block tumor growth; SERM and SERDs effects on MM cell lines (U266): No response; IC50 (ChEH [9]; LP-1 intact cells, [14C]-5,6-EC 0.6 μM, drugs 1 nM to 10 μM over 24 h, read-out: ChEH IC50): > 10000 nM; SERM and SERDs effects on MM cell lines (OPM-2): G1-arrest; IC50 (ChEH [15]; read-out: concentration up to which ChEH was not inhibited): > 10000 nM |
